In the kinase profiling compilation of Christmann-Franck et al. (2016):

Experiments:
Assay in all cases: radiometric filter-binding kinase assay, Kinase HotSpot
Conditions in all cases: compound 0.5 µM; ATP 10 µM
PRKACA (human) = PRKACA (human) (UniProt P17612)
RET (human) = RET (human) (UniProt P07949)
EPHB2 (human) = EPHB2 (human) (UniProt P29323)
CDK4 CCND1 (human) = CDK4 CCND1 (human) (UniProt P24385+P11802)
MAPKAPK2 (human) = MAPKAPK2 (human) (UniProt P49137)
RPS6KA5 KD2 (human) = RPS6KA5 KD2 (human) (UniProt O75582)
IKBKB (human) = IKBKB (human) (UniProt O14920)
MLTK (human) = MLTK (human) (UniProt Q9NYL2)
PKN1 (human) = PKN1 (human) (UniProt Q16512)
KDR (human) = KDR (human) (UniProt P35968)
ADRBK2 (human) = ADRBK2 (human) (UniProt P35626)
PAK3 (human) = PAK3 (human) (UniProt O75914)
PRKCG (human) = PRKCG (human) (UniProt P05129)
MAP3K14 (human) = MAP3K14 (human) (UniProt Q99558)
MUSK (human) = MUSK (human) (UniProt O15146)
GRK4 (human) = GRK4 (human) (UniProt P32298)
CSNK1E (human) = CSNK1E (human) (UniProt P49674)
DYRK3 (human) = DYRK3 (human) (UniProt O43781)
PRKCA (human) = PRKCA (human) (UniProt P17252)
PLK2 (human) = PLK2 (human) (UniProt Q9NYY3)
CSNK1A1 (human) = CSNK1A1 (human) (UniProt P48729)
MAP4K4 (human) = MAP4K4 (human) (UniProt O95819)
CLK3 (human) = CLK3 (human) (UniProt P49761)
MAP3K7 TAB1 (human) = MAP3K7 TAB1 (human) (UniProt O43318+Q15750)
RAF1 (human) = RAF1 (human) (UniProt P04049)
PASK (human) = PASK (human) (UniProt Q96RG2)
NEK11 (human) = NEK11 (human) (UniProt Q8NG66)
FLT1 (human) = FLT1 (human) (UniProt P17948)
CAMKK2 (human) = CAMKK2 (human) (UniProt Q96RR4)
TSSK2 (human) = TSSK2 (human) (UniProt Q96PF2)
PRKD3 (human) = PRKD3 (human) (UniProt O94806)
AKT1 (human) = AKT1 (human) (UniProt P31749)
PDGFRB (human) = PDGFRB (human) (UniProt P09619)
STK11 (human) = STK11 (human) (UniProt Q15831)
EPHA8 (human) = EPHA8 (human) (UniProt P29322)
EPHA5 (human) = EPHA5 (human) (UniProt P54756)
MAP4K5 (human) = MAP4K5 (human) (UniProt Q9Y4K4)
INSR (human) = INSR (human) (UniProt P06213)
CSNK2A2 (human) = CSNK2A2 (human) (UniProt P19784)
MYLK2 (human) = MYLK2 (human) (UniProt Q9H1R3)
ERBB4 (human) = ERBB4 (human) (UniProt Q15303)
IKBKE (human) = IKBKE (human) (UniProt Q14164)

Sequence of CAMKK2 (human) (Q96RR4 whole entry, looked up): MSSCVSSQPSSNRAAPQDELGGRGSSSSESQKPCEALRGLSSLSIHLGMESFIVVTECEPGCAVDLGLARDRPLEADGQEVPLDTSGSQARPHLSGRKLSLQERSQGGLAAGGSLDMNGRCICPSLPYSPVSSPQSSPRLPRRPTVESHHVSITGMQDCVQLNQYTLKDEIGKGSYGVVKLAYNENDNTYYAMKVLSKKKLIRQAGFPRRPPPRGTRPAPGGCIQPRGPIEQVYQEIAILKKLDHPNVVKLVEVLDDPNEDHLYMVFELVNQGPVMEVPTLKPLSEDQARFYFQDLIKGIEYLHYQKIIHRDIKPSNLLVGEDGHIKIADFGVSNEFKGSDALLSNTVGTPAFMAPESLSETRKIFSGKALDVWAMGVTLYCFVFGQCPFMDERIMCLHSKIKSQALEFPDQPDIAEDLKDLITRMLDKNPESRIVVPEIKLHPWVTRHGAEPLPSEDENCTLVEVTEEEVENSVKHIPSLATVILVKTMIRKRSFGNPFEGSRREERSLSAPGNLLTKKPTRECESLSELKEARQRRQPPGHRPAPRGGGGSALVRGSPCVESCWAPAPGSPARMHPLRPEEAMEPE
Sequence of RAF1 (human) (P04049 whole entry, looked up): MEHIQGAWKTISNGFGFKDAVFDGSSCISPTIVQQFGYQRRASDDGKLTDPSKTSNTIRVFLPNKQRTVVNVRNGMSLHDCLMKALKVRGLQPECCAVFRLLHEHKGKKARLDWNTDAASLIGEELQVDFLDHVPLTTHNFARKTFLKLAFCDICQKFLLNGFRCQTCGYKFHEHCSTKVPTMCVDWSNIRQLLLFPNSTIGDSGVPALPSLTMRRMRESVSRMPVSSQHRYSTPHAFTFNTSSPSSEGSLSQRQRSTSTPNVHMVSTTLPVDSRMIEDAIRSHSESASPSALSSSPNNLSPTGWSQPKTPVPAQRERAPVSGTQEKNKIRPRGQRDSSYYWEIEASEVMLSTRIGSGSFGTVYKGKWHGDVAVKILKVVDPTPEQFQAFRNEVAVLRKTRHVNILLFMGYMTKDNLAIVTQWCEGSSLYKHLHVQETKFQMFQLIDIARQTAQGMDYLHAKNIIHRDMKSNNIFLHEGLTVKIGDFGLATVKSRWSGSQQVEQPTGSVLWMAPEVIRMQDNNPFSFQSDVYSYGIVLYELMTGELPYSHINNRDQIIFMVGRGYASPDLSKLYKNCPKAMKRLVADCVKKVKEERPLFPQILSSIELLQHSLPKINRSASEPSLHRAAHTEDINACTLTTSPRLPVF
Sequence of MAP4K5 (human) (Q9Y4K4 whole entry, looked up): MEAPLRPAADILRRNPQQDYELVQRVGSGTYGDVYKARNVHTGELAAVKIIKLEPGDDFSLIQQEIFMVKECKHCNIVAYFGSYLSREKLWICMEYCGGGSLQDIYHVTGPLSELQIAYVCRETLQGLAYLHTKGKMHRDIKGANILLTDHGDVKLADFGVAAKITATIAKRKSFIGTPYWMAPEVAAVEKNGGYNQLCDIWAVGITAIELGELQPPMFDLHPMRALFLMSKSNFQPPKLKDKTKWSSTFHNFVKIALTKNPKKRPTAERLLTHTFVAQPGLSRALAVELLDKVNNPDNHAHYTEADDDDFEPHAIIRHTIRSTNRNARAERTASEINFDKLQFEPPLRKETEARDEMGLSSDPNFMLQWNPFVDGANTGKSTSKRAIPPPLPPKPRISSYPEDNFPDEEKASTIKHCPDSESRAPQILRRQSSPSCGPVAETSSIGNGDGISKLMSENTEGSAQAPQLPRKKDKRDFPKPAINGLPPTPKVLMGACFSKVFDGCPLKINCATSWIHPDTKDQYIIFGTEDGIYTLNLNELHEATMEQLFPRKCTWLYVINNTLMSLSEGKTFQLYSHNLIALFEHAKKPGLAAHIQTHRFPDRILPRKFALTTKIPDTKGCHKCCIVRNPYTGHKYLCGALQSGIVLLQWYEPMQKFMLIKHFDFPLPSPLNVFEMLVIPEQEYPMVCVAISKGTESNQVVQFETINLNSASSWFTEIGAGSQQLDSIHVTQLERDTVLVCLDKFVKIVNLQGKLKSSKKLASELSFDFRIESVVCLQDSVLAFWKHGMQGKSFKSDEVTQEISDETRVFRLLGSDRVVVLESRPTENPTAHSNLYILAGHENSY
Sequence of PAK3 (human) (O75914 whole entry, looked up): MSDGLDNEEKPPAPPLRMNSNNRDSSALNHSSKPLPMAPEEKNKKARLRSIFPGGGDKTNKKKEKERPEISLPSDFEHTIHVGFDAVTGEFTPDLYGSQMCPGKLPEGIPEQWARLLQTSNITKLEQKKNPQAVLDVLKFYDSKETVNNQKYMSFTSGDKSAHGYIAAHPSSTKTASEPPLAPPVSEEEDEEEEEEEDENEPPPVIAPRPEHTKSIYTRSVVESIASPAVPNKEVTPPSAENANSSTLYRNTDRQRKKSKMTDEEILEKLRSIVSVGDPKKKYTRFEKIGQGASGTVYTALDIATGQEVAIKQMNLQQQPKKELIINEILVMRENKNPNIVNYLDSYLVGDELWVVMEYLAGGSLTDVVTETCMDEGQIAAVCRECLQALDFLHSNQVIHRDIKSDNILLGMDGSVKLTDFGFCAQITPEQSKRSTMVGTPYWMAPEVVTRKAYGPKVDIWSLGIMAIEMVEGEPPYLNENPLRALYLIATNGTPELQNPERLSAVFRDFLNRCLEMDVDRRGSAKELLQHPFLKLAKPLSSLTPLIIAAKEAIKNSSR
Sequence of CSNK1A1 (human) (P48729 whole entry, looked up): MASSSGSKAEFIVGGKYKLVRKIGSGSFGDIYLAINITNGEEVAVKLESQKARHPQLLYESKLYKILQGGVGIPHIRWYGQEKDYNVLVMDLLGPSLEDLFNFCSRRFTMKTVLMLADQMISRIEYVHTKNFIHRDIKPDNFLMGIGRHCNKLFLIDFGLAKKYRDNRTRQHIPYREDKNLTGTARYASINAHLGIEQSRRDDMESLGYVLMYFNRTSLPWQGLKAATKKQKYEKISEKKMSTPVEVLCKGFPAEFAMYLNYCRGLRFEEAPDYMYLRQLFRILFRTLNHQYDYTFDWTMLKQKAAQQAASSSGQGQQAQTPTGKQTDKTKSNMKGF
Sequence of EPHB2 (human) (P29323 whole entry, looked up): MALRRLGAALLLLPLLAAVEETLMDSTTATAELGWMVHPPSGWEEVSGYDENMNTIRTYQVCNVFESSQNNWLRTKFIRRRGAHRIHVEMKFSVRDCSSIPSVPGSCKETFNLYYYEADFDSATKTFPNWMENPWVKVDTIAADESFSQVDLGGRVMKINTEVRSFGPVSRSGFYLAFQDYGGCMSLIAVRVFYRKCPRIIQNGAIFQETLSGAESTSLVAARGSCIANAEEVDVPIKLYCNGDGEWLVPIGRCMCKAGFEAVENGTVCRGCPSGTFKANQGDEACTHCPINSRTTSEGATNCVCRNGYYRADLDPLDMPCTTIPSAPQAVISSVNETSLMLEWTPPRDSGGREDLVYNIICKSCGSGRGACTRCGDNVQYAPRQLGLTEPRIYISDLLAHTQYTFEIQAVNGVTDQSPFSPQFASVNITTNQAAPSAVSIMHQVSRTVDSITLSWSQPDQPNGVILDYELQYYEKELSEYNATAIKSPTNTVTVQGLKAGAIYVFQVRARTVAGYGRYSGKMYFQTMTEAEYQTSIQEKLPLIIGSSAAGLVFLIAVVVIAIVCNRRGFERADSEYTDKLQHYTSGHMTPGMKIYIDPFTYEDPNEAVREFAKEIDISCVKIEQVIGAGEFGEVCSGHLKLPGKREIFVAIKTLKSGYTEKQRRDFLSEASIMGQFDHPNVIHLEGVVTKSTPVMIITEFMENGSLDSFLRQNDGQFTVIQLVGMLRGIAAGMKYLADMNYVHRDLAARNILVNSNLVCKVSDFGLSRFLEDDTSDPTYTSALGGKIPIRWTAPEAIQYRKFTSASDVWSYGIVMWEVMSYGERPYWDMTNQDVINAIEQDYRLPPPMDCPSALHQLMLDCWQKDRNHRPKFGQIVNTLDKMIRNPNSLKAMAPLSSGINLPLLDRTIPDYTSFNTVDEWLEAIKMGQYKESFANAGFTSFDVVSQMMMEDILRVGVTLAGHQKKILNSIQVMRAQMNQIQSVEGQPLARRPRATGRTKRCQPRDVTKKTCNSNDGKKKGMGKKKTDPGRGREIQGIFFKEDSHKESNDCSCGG

CCN(CC)C(=O)c1ccc(Nc2nc(OCC3CCCCC3)c3nc[nH]c3n2)cc1
residual activity (PRKACA (human)): 93.7% | residual activity (RET (human)): 7.65% | residual activity (EPHB2 (human)): 93.7% | residual activity (CDK4 CCND1 (human)): 82% | residual activity (MAPKAPK2 (human)): 99.2% | residual activity (RPS6KA5 KD2 (human)): 89.8% | residual activity (IKBKB (human)): 97.3% | residual activity (MLTK (human)): 91.4% | residual activity (PKN1 (human)): 78.9% | residual activity (KDR (human)): 76.5% | residual activity (ADRBK2 (human)): 92.7% | residual activity (PAK3 (human)): 87.7% | residual activity (PRKCG (human)): 94.5% | residual activity (MAP3K14 (human)): 132% | residual activity (MUSK (human)): 77.5% | residual activity (GRK4 (human)): 93% | residual activity (CSNK1E (human)): 95.6% | residual activity (DYRK3 (human)): 97.6% | residual activity (PRKCA (human)): 82.5% | residual activity (PLK2 (human)): 98.2% | residual activity (CSNK1A1 (human)): 104% | residual activity (MAP4K4 (human)): 85.9% | residual activity (CLK3 (human)): 84.1% | residual activity (MAP3K7 TAB1 (human)): 57.1% | residual activity (RAF1 (human)): 86.3% | residual activity (PASK (human)): 103% | residual activity (NEK11 (human)): 132% | residual activity (FLT1 (human)): 84% | residual activity (CAMKK2 (human)): 97.5% | residual activity (TSSK2 (human)): 87.4% | residual activity (PRKD3 (human)): 66.5% | residual activity (AKT1 (human)): 98.8% | residual activity (PDGFRB (human)): 54.6% | residual activity (STK11 (human)): 85.2% | residual activity (EPHA8 (human)): 92.1% | residual activity (EPHA5 (human)): 95% | residual activity (MAP4K5 (human)): 78% | residual activity (INSR (human)): 92.8% | residual activity (CSNK2A2 (human)): 90.9% | residual activity (MYLK2 (human)): 94.7% | residual activity (ERBB4 (human)): 91% | residual activity (IKBKE (human)): 77.9%

Nc1ncnc2c1c(-c1ccc(Oc3ccccc3)cc1)cn2C1CCCC1
residual activity (PRKACA (human)): 100% | residual activity (RET (human)): 9.97% | residual activity (EPHB2 (human)): 90.5% | residual activity (CDK4 CCND1 (human)): 121% | residual activity (MAPKAPK2 (human)): 107% | residual activity (RPS6KA5 KD2 (human)): 90.5% | residual activity (IKBKB (human)): 101% | residual activity (MLTK (human)): 70.3% | residual activity (PKN1 (human)): 104% | residual activity (KDR (human)): 75% | residual activity (ADRBK2 (human)): 92.2% | residual activity (PAK3 (human)): 98.4% | residual activity (PRKCG (human)): 96.1% | residual activity (MAP3K14 (human)): 113% | residual activity (MUSK (human)): 115% | residual activity (GRK4 (human)): 103% | residual activity (CSNK1E (human)): 22.3% | residual activity (DYRK3 (human)): 94.9% | residual activity (PRKCA (human)): 106% | residual activity (PLK2 (human)): 92.5% | residual activity (CSNK1A1 (human)): 84.9% | residual activity (MAP4K4 (human)): 98.8% | residual activity (CLK3 (human)): 96.9% | residual activity (MAP3K7 TAB1 (human)): 92.3% | residual activity (RAF1 (human)): 71.3% | residual activity (PASK (human)): 98.5% | residual activity (NEK11 (human)): 87.1% | residual activity (FLT1 (human)): 76.9% | residual activity (CAMKK2 (human)): 86.3% | residual activity (TSSK2 (human)): 92.1% | residual activity (PRKD3 (human)): 89.4% | residual activity (AKT1 (human)): 103% | residual activity (PDGFRB (human)): 73.4% | residual activity (STK11 (human)): 101% | residual activity (EPHA8 (human)): 95.2% | residual activity (EPHA5 (human)): 108% | residual activity (MAP4K5 (human)): 80.2% | residual activity (INSR (human)): 103% | residual activity (CSNK2A2 (human)): 74.7% | residual activity (MYLK2 (human)): 92.4% | residual activity (ERBB4 (human)): 11.9% | residual activity (IKBKE (human)): 97.4%

CC(=O)c1ccc(N2CCOCC2)cc1O
residual activity (PRKACA (human)): 102% | residual activity (RET (human)): 103% | residual activity (EPHB2 (human)): 82.5% | residual activity (CDK4 CCND1 (human)): 94.4% | residual activity (MAPKAPK2 (human)): 103% | residual activity (RPS6KA5 KD2 (human)): 105% | residual activity (IKBKB (human)): 103% | residual activity (MLTK (human)): 97.8% | residual activity (PKN1 (human)): 108% | residual activity (KDR (human)): 97.7% | residual activity (ADRBK2 (human)): 89.1% | residual activity (PAK3 (human)): 93.9% | residual activity (PRKCG (human)): 98.7% | residual activity (MAP3K14 (human)): 82.6% | residual activity (MUSK (human)): 93.9% | residual activity (GRK4 (human)): 106% | residual activity (CSNK1E (human)): 96.2% | residual activity (DYRK3 (human)): 93.9% | residual activity (PRKCA (human)): 73.4% | residual activity (PLK2 (human)): 104% | residual activity (CSNK1A1 (human)): 110% | residual activity (MAP4K4 (human)): 96.9% | residual activity (CLK3 (human)): 101% | residual activity (MAP3K7 TAB1 (human)): 98.6% | residual activity (RAF1 (human)): 96.2% | residual activity (PASK (human)): 95% | residual activity (NEK11 (human)): 98.6% | residual activity (FLT1 (human)): 97.1% | residual activity (CAMKK2 (human)): 115% | residual activity (TSSK2 (human)): 102% | residual activity (PRKD3 (human)): 98.4% | residual activity (AKT1 (human)): 103% | residual activity (PDGFRB (human)): 105% | residual activity (STK11 (human)): 103% | residual activity (EPHA8 (human)): 101% | residual activity (EPHA5 (human)): 109% | residual activity (MAP4K5 (human)): 102% | residual activity (INSR (human)): 94% | residual activity (CSNK2A2 (human)): 98.8% | residual activity (MYLK2 (human)): 98.6% | residual activity (ERBB4 (human)): 107% | residual activity (IKBKE (human)): 105%

Cc1[nH]c(/C=C2\C(=O)Nc3ccc(S(=O)(=O)N(C)c4cccc(Cl)c4)cc32)c(C)c1C(=O)N1CCN(C)CC1
residual activity (PRKACA (human)): 100% | residual activity (RET (human)): 23% | residual activity (EPHB2 (human)): 91.8% | residual activity (CDK4 CCND1 (human)): 88.5% | residual activity (MAPKAPK2 (human)): 104% | residual activity (RPS6KA5 KD2 (human)): 94.1% | residual activity (IKBKB (human)): 107% | residual activity (MLTK (human)): 97.4% | residual activity (PKN1 (human)): 86.4% | residual activity (KDR (human)): 79.4% | residual activity (ADRBK2 (human)): 103% | residual activity (PAK3 (human)): 93.5% | residual activity (PRKCG (human)): 94.8% | residual activity (MAP3K14 (human)): 109% | residual activity (MUSK (human)): 84.2% | residual activity (GRK4 (human)): 103% | residual activity (CSNK1E (human)): 76.1% | residual activity (PRKCA (human)): 91.9% | residual activity (PLK2 (human)): 96.4% | residual activity (CSNK1A1 (human)): 79.2% | residual activity (MAP4K4 (human)): 40.9% | residual activity (CLK3 (human)): 71.1% | residual activity (MAP3K7 TAB1 (human)): 79.8% | residual activity (RAF1 (human)): 114% | residual activity (PASK (human)): 106% | residual activity (NEK11 (human)): 103% | residual activity (FLT1 (human)): 74.7% | residual activity (CAMKK2 (human)): 75.2% | residual activity (TSSK2 (human)): 96.3% | residual activity (PRKD3 (human)): 42.7% | residual activity (AKT1 (human)): 98.8% | residual activity (PDGFRB (human)): 76.4% | residual activity (STK11 (human)): 89.9% | residual activity (EPHA8 (human)): 91.7% | residual activity (EPHA5 (human)): 96.4% | residual activity (MAP4K5 (human)): 5.06% | residual activity (INSR (human)): 98.8% | residual activity (CSNK2A2 (human)): 84.6% | residual activity (MYLK2 (human)): 73.8% | residual activity (ERBB4 (human)): 105% | residual activity (IKBKE (human)): 74.2%
